Measurements: US20110190280A1, “Thiazole And Oxazole Kinase Inhibitors” (priority 2007, published 2011)

Experiments:
HT-29 tumor cells = experiment: Cell growth inhibition assay (CellTiter-Glo), HT-29; conditions: Homo sapiens, HT-29, 72 h, read-out: Activity in HT-29 Tumor Cells;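 also: ATP content read by luminescence as proxy for cell number, growth inhibition versus DMSO vehicle wells, 0.2% DMSO final, nine serial threefold compound dilutions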
Protocol: Cell Growth Inhibition Assays Human colon tumor cells (Colo205) were cultured in RPMI (Mediatech 50-020-PB) containing 10% FBS and 1% penicillin-streptomycin. […] Human melanoma cancer cells (A375-F11S) were cultured in RPMI (Mediatech 50-020-PB) containing 10% FBS, 1% sodium pyruvate, and 1% penicillin-streptomycin. Human colon cancer cells (HT-29) were cultured in high glucose DMEM (Mediatech 50-013-PB) containing 10% FBS and 1% penicillin-streptomycin. Human melanoma cancer cells (SK-MEL-3) were cultured in McCoy's 5A (50-025-PB) containing 15% FBS, and 1% penicillin-streptomycin. All cell lines were maintained at 37° C. in a humidified 5% CO2, 95% air incubator.
The next day, compounds were diluted as follows: For 96-well assays, 13.5 μl of compound in DMSO were diluted using nine (9) serial 1:3 dilutions of 4.5 μl in 9 μl of DMSO. Medium (270 μl/well of RPMI with 10% FBS and 1% penicillin-streptomycin) was added to the plates. Aliquots (7 μl) were added to cells in the final assay giving a final DMSO concentration of 0.2%. For 384-well assays, 15 μl of compound in DMSO were diluted using nine (9) serial 1:3 dilutions of 5 μl in 10 μl of DMSO, followed by a further dilution of 5 μl of compound with 95 μl of medium, of which 2 μl are added to cells in the final assay giving a final DMSO concentration of 0.2%. Cells were incubated at 37° C., 5% CO2 for 3 days.
Total ATP was measured (as a surrogate estimate of cell number) using CellTiter-Glo® (Promega G7571) reagent. Briefly, plates were removed from the incubator and allowed to equilibrate to room temperature for 30 minutes. CellTiter-Glo® (25 μl or 55 μl for 384-well or 96-well assays, respectively) reagent was added to each well and plates were shaken on an orbital plate shaker for 2 minutes. Plates were incubated without shaking for a further 30 minutes and read on an LJL Analyst GT reader in luminometer mode with an integration time of 0.5 seconds per well. Percent inhibition of cell growth was calculated relative to DMSO vehicle-treated control wells.

A375P tumor cells = experiment: Cell growth inhibition assay (CellTiter-Glo), A375P; conditions: Homo sapiens, 72 h, read-out: Activity in A375P Tumor Cells;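 also: total ATP luminescence used as proxy for cell number, serial threefold compound dilutions at 0.2% DMSO, growth inhibition expressed versus DMSO vehicle-treated wells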
EGFR = EGFR (Homo sapiens, UniProt P00533); experiment: EGFR kinase autophosphorylation assay (peptide phosphorylation, HTRF); format: biochemical; conditions: 0.8 nM EGFR, class by pIC50
EGFR, sequence (P00533 25-1210): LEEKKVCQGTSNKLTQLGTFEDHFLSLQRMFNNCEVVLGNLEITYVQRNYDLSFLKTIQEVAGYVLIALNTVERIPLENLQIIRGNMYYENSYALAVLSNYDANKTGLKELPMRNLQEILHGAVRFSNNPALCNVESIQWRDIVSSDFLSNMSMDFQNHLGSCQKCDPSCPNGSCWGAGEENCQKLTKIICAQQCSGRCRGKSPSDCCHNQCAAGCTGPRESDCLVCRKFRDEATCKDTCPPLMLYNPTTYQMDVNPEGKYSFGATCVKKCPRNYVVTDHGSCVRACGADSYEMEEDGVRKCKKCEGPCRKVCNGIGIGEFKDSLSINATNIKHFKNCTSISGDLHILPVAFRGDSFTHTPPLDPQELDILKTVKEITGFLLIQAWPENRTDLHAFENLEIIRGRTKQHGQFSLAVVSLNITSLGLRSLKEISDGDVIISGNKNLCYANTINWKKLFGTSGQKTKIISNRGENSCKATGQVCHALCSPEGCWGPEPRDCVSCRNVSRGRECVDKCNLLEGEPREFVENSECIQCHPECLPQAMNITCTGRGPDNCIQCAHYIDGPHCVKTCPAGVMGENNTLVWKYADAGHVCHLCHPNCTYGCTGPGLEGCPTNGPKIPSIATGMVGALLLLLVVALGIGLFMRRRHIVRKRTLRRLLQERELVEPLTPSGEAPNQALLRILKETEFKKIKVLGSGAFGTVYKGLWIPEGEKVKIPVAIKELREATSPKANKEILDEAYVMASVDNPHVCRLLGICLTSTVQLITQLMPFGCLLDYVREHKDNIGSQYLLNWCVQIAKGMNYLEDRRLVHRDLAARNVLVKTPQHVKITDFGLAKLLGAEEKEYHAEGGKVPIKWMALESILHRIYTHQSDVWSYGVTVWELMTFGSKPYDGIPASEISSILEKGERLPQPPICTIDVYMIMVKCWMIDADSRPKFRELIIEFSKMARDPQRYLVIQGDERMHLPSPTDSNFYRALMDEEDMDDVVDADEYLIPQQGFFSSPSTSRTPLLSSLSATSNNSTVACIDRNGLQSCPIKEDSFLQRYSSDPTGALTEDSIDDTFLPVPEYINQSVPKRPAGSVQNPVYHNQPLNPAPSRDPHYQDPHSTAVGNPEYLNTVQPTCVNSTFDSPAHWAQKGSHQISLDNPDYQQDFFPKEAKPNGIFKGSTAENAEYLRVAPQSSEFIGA
Protocol: (§1) A selection of compounds of the present invention were tested for inhibitory activity against EGFR and ErbB2 kinases in autophosphorylation assays.
(§2) The method measures the ability of the isolated enzyme to catalyse the transfer of the gamma-phosphate from ATP onto the tyrosine residue of a biotinylated synthetic peptide referenced “Peptide C” in Brignola, P. S., et al, (2002) J. Biol. Chem. 277(2):1576-1585. The extent of tyrosine phosphorylation was measured using an anti-phosphotyrosine antibody, and quantified by homogenous time-resolved fluorescence (HTRF).
(§3) Reactions were performed in black 384-well polystyrene flat-bottom plates in a final volume of 20 ul. Assays were performed by adding 10 μl of each of the following solutions, substrate Mix and enzyme mix: The Substrate mix contained 100 mM 3-[N-morpholino]propanesulfonic acid (MOPS) (pH 7.5), 2 mM MnCl2, 20 μM ATP, 0.01% Tween-20, 0.1 mg/mL (BSA), 0.8 uM peptide substrate, and 1 mM dithiothreitol. The enzyme mix contained 100 mM MOPS (pH7.5); 0.01% Tween-20; 0.1 mg/mL BSA, and either 0.8 nM EGFR, 10 nM ErbB2, or 1 nM ErbB4
(§4) The enzyme mix was added to the compound plates and the plates were incubated at 20° C. for 1 hour. The reactions were allowed to proceed for 90 minutes at 20° C. The reactions were then terminated by the addition of 20 μl 100 mM EDTA to each well. 40 μl/well of HTRF detection mix were added to the assay plates. The final concentrations of the detection reagents were: 100 mM HEPES (pH7.5), 0.1 mg/mL BSA, 15 nM streptavidin-labeled allophycocyanin (PerkinElmer), and 1 nM europium-labeled anti-phosphotyrosine antibody (PerkinElmer). Assay plates were left unsealed and were counted in a Wallac Multilabel Counter 1420 (PerkinElmer).
(§5) Compounds under analysis were dissolved in Me2SO to 1.0 mM and serially diluted 1 to 3 with Me2SO through twelve dilutions. 1 μl of each concentration was transferred to the corresponding well of an assay plate. This creates a final compound concentration range from 0.00027 to 47.6 μM.
(§6) The data for dose responses were plotted as % Inhibition calculated with the data reduction formula 100*(1−(U1−C2)/(C1−C2)) versus concentration of compound where U is the unknown value, C1 is the average control value obtained for 4.76% DMSO, and C2 is the average control value obtained for 0.035 M EDTA. Data were fitted with a curve described by:
(§7) where Vmax is the upper asymptote, Y2 is the Y intercept, and K is the IC50. The results for each compound were recorded as pIC50s, calculated as follows: […]
(§8) In the following table: • “+” indicates no pIC50 measurement greater than 6 against EGFR or ErbB2, • “++” indicates at least one pIC50 measurement greater than 6 against EGFR or ErbB2 but no measurement greater than pIC50 of 7; and • “+++” indicates at least one pIC50 measurement of greater than 7 against EGFR or ErbB2.

SK-MEL-28 tumor cells = experiment: Cell growth inhibition assay (CellTiter-Glo), SK-MEL-28; conditions: Homo sapiens, SK-MEL-28, 72 h, read-out: Activity in SK-MEL-28 Tumor Cells;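 also: luminescent total ATP as a proxy for cell number, threefold serial dilutions at 0.2% DMSO, percent growth inhibition versus DMSO vehicle control wells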
Colo205 tumor cells = experiment: Cell growth inhibition assay (CellTiter-Glo), Colo205; conditions: Homo sapiens, COLO 205, 72 h, read-out: Activity in Colo205 Tumor Cells;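 also: growth measured via total ATP luminescence (CellTiter-Glo) as a proxy for cell number, inhibition expressed against DMSO-treated control wells, 3-day exposure at 0.2% final DMSO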
B-Raf = B-Raf (Homo sapiens, UniProt P15056); experiment: B-Raf Accelerated MEK ATPase assay (BRAMA); format: biochemical; conditions: BRAMA enzyme assay; class by pIC50; read-out: B-Raf Activity
B-Raf, sequence (P15056 whole entry): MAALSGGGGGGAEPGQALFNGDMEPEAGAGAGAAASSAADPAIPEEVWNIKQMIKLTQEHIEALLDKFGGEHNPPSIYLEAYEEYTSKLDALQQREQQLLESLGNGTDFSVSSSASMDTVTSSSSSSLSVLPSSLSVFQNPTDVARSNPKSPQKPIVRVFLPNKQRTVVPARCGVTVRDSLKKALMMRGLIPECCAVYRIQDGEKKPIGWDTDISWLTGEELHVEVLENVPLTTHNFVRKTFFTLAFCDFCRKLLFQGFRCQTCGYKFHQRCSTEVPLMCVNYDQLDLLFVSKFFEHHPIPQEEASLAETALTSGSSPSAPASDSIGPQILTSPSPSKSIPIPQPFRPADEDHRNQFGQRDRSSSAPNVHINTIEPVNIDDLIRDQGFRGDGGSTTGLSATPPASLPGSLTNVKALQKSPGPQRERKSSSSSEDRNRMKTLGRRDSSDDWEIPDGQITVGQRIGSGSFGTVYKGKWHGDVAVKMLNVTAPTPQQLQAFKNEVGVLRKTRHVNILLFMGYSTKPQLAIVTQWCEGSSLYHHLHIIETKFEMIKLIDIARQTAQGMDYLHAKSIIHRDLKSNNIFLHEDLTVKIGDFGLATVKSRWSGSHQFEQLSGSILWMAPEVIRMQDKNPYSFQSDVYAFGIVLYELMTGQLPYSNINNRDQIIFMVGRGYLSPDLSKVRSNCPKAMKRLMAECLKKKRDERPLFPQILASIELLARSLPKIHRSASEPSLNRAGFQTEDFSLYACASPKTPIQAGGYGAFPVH
How it was run: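 B-Raf activity read as intrinsic MEK ATPase: catalytic activated RAF with non-phosphorylated MEK drives ADP formation, coupled through pyruvate kinase and lactate dehydrogenase to NADH oxidation, independent of ERK phosphorylation.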

SK-MEL-3 tumor cells = experiment: Cell growth inhibition assay (CellTiter-Glo), SK-MEL-3; conditions: Homo sapiens, SK-MEL3, 72 h, read-out: Activity in SK-MEL-3 Tumor Cells;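 also: human melanoma cells grown with compound for 3 days in 0.2% DMSO, total ATP read by luminescence as proxy for cell number, growth inhibition versus DMSO-treated wells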
ErbB2 = ErbB2 (Homo sapiens, UniProt P04626); experiment: ErbB2 kinase autophosphorylation assay (peptide phosphorylation, HTRF); format: biochemical; conditions: 10 nM ErbB2, HTRF; class by pIC50
ErbB2, sequence (P04626 23-1255): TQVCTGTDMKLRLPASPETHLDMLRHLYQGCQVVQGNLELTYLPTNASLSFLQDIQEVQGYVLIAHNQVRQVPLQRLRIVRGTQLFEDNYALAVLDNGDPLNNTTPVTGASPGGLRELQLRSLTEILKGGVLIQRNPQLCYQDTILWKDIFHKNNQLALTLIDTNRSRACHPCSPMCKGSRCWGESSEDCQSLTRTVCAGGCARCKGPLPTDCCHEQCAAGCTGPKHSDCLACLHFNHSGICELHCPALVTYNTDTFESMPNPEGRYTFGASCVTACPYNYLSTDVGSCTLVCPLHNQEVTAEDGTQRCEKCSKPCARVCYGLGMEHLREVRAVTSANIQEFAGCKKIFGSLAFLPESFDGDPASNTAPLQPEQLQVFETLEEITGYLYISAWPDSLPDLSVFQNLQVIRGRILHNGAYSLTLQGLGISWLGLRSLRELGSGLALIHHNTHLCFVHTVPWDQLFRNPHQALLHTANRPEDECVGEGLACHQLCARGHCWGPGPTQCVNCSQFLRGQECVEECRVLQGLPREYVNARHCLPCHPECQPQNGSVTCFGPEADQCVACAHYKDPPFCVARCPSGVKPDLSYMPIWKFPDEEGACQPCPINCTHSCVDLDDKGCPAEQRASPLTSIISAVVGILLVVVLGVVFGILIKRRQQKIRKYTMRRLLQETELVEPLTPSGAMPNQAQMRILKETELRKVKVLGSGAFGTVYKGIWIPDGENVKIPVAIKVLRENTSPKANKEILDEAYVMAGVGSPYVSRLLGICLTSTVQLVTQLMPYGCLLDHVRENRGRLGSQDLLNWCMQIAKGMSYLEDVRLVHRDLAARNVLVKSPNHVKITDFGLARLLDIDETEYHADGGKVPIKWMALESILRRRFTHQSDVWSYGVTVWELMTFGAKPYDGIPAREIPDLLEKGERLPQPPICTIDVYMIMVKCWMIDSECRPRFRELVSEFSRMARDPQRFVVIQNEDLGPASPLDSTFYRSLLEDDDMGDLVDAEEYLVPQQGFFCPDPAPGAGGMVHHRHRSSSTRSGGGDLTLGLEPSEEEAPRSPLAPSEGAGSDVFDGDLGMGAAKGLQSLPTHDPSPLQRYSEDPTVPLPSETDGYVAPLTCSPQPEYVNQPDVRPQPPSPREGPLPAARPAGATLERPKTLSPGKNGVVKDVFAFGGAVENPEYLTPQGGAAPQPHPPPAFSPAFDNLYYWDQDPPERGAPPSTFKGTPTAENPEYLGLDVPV
Protocol: as §1, §2, §3, §4, §5, §6, §7, §8

Row | Compound | IC50 (HT-29 tumor cells) [nM] | IC50 (A375P tumor cells) [nM] | IC50 (EGFR) [nM] | IC50 (SK-MEL-28 tumor cells) [nM] | IC50 (Colo205 tumor cells) [nM] | IC50 (B-Raf) [nM] | IC50 (SK-MEL-3 tumor cells) [nM] | IC50 (ErbB2) [nM]
1 | CCNc1nc(-c2cc(OC)cc(OC)c2)c(-c2ccnc(Nc3ccc(N4CCN(C(C)=O)CC4)nc3)n2)s1 [Example 4, N-[6-(4-Acetyl-1-piperazinyl)-3-pyridinyl]-4-[4-[3,5-bis(methyloxy)phenyl]-2-(ethylamino)-1,3-thiazol-5-yl]-2-pyrimidinamine] | < 500 | < 500 | > 1000 | < 500 | < 500 | < 100 | < 500 | > 1000
2 | CCNc1nc(-c2cc(OC)cc(OC)c2)c(-c2ccnc(Nc3ccc(N4CCOCC4)c(F)c3)n2)s1 [Example 7, 4-[4-[3,5-Bis(methyloxy)phenyl]-2-(ethylamino)-1,3-thiazol-5-yl]-N-[3-fluoro-4-(4-morpholinyl)phenyl]-2-pyrimidinamine] | < 500 | 500 to 5000 | > 1000 | < 500 | < 500 | < 100 | < 500 | > 1000
3 | CCNc1nc(-c2cc(OC)cc(OC)c2)c(-c2ccnc(Nc3ccc(OC4CCN(CCS(C)(=O)=O)CC4)c(F)c3)n2)s1 [Example 10, 4-[4-[3,5-Bis(methyloxy)phenyl]-2-(ethylamino)-1,3-thiazol-5-yl]-N-[3-fluoro-4-({1-[2-(methylsulfonyl)ethyl]-4-piperidinyl}oxy)phenyl]-2-pyrimidinamine] | < 500 | < 500 | > 1000 | < 500 | < 500 | < 100 | < 500 | > 1000
4 | CCNc1nc(-c2cc(C)cc(OC)c2)c(-c2ccnc(Nc3ccc(N4CCN(CCS(C)(=O)=O)CC4)c(F)c3)n2)s1 [Example 27, 4-{2-(Ethylamino)-4-[3-methyl-5-(methyloxy)phenyl]-1,3-thiazol-5-yl}-N-(3-fluoro-4-{4-[2-(methylsulfonyl)ethyl]-1-piperazinyl}phenyl)-2-pyrimidinamine] | < 500 | < 500 | > 1000 | < 500 | < 500 | < 100 | < 500 | > 1000
5 | CCNc1nc(-c2cc(C)cc(OC)c2)c(-c2ccnc(Nc3ccc(N4CCOCC4)c(F)c3)n2)s1 [Example 28, 4-{2-(Ethylamino)-4-[3-methyl-5-(methyloxy)phenyl]-1,3-thiazol-5-yl}-N-[3-fluoro-4-(4-morpholinyl)phenyl]-2-pyrimidinamine] | < 500 | < 500 | > 1000 | < 500 | < 500 | < 100 | < 500 | > 1000
6 | CCNc1nc(-c2cc(C)cc(OC)c2)c(-c2ccnc(Nc3ccc(N4CCN(CCF)CC4)c(F)c3)n2)s1 [Example 29, 4-{2-(Ethylamino)-4-[3-methyl-5-(methyloxy)phenyl]-1,3-thiazol-5-yl}-N-{3-fluoro-4-[4-(2-fluoroethyl)-1-piperazinyl]phenyl}-2-pyrimidinamine] | < 500 | < 500 | > 1000 | < 500 | < 500 | < 100 | < 500 | > 1000

Results, then the compound that gave them:

Row | IC50 (HT-29 tumor cells) [nM] | IC50 (A375P tumor cells) [nM] | IC50 (EGFR) [nM] | IC50 (SK-MEL-28 tumor cells) [nM] | IC50 (Colo205 tumor cells) [nM] | IC50 (B-Raf) [nM] | IC50 (SK-MEL-3 tumor cells) [nM] | IC50 (ErbB2) [nM] | Compound
7 | < 500 | < 500 | > 1000 | < 500 | < 500 | < 100 | < 500 | > 1000 | CCNc1nc(-c2cc(C)cc(OC)c2)c(-c2ccnc(Nc3ccc4c(c3)CCN4C(C)=O)n2)s1 [Example 30, 1-Acetyl-N-(4-{2-(ethylamino)-4-[3-methyl-5-(methyloxy)phenyl]-1,3-thiazol-5-yl}-2-pyrimidinyl)-2,3-dihydro-1H-indol-5-amine]
8 | < 500 | < 500 | > 1000 | < 500 | < 500 | < 100 | < 500 | > 1000 | CCNc1nc(-c2cc(C)cc(OC)c2)c(-c2ccnc(Nc3ccc(N4CCS(=O)(=O)CC4)nc3)n2)s1 [Example 34, N-[6-(1,1-Dioxido-4-thiomorpholinyl)-3-pyridinyl]-4-{2-(ethylamino)-4-[3-methyl-5-(methyloxy)phenyl]-1,3-thiazol-5-yl}-2-pyrimidinamine]
9 | < 500 | < 500 | > 1000 | < 500 | < 500 | < 100 | < 500 | > 1000 | CCNc1nc(-c2cc(C)cc(OC)c2)c(-c2ccnc(Nc3ccc(N4CCOCC4)nc3)n2)s1 [Example 35, 4-{2-(Ethylamino)-4-[3-methyl-5-(methyloxy)phenyl]-1,3-thiazol-5-yl}-N-[6-(4-morpholinyl)-3-pyridinyl]-2-pyrimidinamine]
10 | < 500 | < 500 | > 1000 | – | – | – | < 500 | > 1000 | CCNc1nc(-c2cc(C)cc(OC)c2)c(-c2ccnc(Nc3ccc(N4CCN(C(C)=O)CC4)nc3)n2)o1 [Example 70, N-[6-(4-Acetyl-1-piperazinyl)-3-pyridinyl]-4-{2-(ethylamino)-4-[3-methyl-5-(methyloxy)phenyl]-1,3-oxazol-5-yl}-2-pyrimidinamine]
11 | – | – | 100 to 1000 | 500 to 5000 | 500 to 5000 | < 100 | – | 100 to 1000 | COc1cc(-c2nc(N3CCCC3)sc2-c2ccnc(Nc3ccc(OCCN4CCCC4)c(F)c3)n2)ccc1Cl [Example 78, 4-[4-[4-Chloro-3-(methyloxy)phenyl]-2-(1-pyrrolidinyl)-1,3-thiazol-5-yl]-N-(3-fluoro-4-{[2-(1-pyrrolidinyl)ethyl]oxy}phenyl)-2-pyrimidinamine]
12 | – | – | > 1000 | 500 to 5000 | 500 to 5000 | < 100 | – | > 1000 | COc1cc(C)cc(-c2nc(C(C)C)sc2-c2ccnc(Nc3ccc(N4CCN5CCCCC5C4)c(F)c3)n2)c1 (centres unmarked) [Example 113]
13 | 500 to 5000 | 500 to 5000 | – | 500 to 5000 | < 500 | < 100 | < 500 | – | CCNc1nc(-c2cc(C)cc(OC)c2)c(-c2ccnc(Nc3cc(OC)c(OC4CCN(CCS(C)(=O)=O)CC4)c(OC)c3)n2)o1 [Example 131]
14 | 500 to 5000 | 500 to 5000 | – | 500 to 5000 | < 500 | < 100 | 500 to 5000 | – | CCNc1nc(-c2cc(OC)cc(OC)c2)c(-c2ccnc(Nc3cc(OC)c(OC4CCN(CCS(C)(=O)=O)CC4)c(OC)c3)n2)o1 [Example 133]
15 | – | – | > 1000 | > 5000 | 500 to 5000 | < 100 | – | > 1000 | CCNc1nc(-c2cc(OC)cc(OC)c2)c(-c2ccnc(Nc3ccc(N4CCN5CCOC[C@H]5C4)nc3)n2)o1 [Example 135]
